Earlier results, collected in US20030035834A1, “Sustained release verapamil pharmaceutical composition free of food effect and a method for alleviating food effect in drug release” (priority 2000, published 2003).
Where two headings read alike, the source gives them in different places.

For `COc1ccc2c3c1O[C@H]1C(=O)CC[C@@]4(O)[C@@H](C2)N(C)CC[C@]314` [oxycodone], the “difference in availability, fasted vs fed” value (extended release tablets) is listed as “no difference” and the “difference in availability, fasted vs fed” value (immediate release aqueous solution) is listed as “significant difference”.
